Columns and labels:
in vivo = conditions: mouse, iv, 60 mg/kg
Protocol: 17-allylaminogeldanamycin (17-AAG) (60 mg/kg) was administered to CD2F1 mice by intravenous (iv) injection. Brain levels of 17-AAG were determined at various time points after administration.

cultured neurons = conditions: cited from earlier work
HT22 cells [1] = assay: MTT viability assay of glutamate-treated HT22 cells; assay type: cell-based, mouse
Protocol: (§1) HT22 cells were seeded on 60 mm tissue culture dishes at 300,000 cells per dish and grown overnight. Cells were then incubated in the presence of 5 mM glutamate for 20 hours. […] In order to provide a more accurate assessment of glutamate-induced oxidative toxicity, the ability of HT22 cells to metabolize 3-(4,5-[…]-2-yl)-2,5-diphenyl tetrazolium bromide (MTT) was assayed. The reduction of this dye by viable cells can easily be detected spectrophotometrically as described by Mosman (1983) J. Immunol. Methods 65:55 with reduced HT22 cell viability directly correlated with decreased metabolism of MTT (Shubert et al. (1992) Proc. Natl. Acad. Sci. USA 89:8264). HT22 cells were seeded on 96-well plates at 5,000 cells per well and grown for 12 hours. Cells were then treated with 2 mM, 5 mM or 10 mM concentrations of glutamate. […] After a total incubation period of 20 hours, cell viability was measured using an MTT assay as described by Li et al. (1997) Neuron 19:453. Briefly, 10 μl of MTT solution (5 mg/ml) was added to each well and cells incubated for an additional 4 hours. 100 μl of solubilization solution (50% dimethylformamide and 20% SDS, pH 4.8) was added and left on the cells 5 overnight, after which light absorption at 570 nm was measured. Values (% Viability) represent the average of quadruplicate (FIG. 1) or triplicate (FIG. 2) determinations±S.D. Similar results were obtained in a replicate experiment. Cell viability was expressed relative to control cells treated with GA or Herb alone.

hsp70 in rat brain = assay: Western blot of hsp70 in rat hippocampus after intracranial ventricular injection; assay type: in vivo; conditions: 20 μg geldanamycin icv, 12 or 24 hours (FIGS. 5A, 5B)
Protocol: (§2) Geldanamycin was delivered to rat brain by intracranial ventricular (icv) injection as follows. Rats were stereotaxically fitted with 4 mm×22 gauge guide cannulae directed at the lateral ventricle (AP-2.0, ML+2.0). […] The injector was removed and replaced with a stylet. At 12 or 24 hours after injection, hippocampi were isolated from which whole cell extracts were prepared and subjected to Western blot analysis to visualize raf- 1 and actin, or hsp70. Negative and positive control protein samples for hsp70 were prepared from untreated or heat shocked HT22 cells. Western blot analysis is depicted in FIGS. 5A and 5B in which the (-) and (+) lanes refer to the negative and positive control samples.

HT22 cells [2] = assay: Internucleosomal DNA cleavage (apoptosis) in HT22 cells; assay type: cell-based, mouse
Protocol: HT22 cells were treated with 5 mM glutamate (Glu) for 20 hours. […] Controls included HT22 cells not treated with Glu or GA and cells treated with GA alone.

[3] = system: myogenic H9c2 cells and cardiomyocytes; conditions: pretreatment; cited from earlier work
[4] = system: heat shock proteins in rat cardiomyocytes; conditions: cited from earlier work; for overexpression of heat shock proteins in cardiomyocytes: pretreatment
HT22 cells [5] = assay: Glutamate-induced cytotoxicity in HT22 cells by phase contrast/light microscopy and trypan blue staining; assay type: cell-based, mouse
Protocol: as §1, with “overnight.” for “overnight. Cells were then incubated in the presence of 5 mM glutamate for 20 hours.”

hsp90 in HT22 cells = assay: Western blot of steady state hsp90 levels in HT22 cells; assay type: cell-based, mouse; conditions: 0.1 μg/ml GA
Protocol: (§3) Cells were harvested and lysed by sonication in 0.25 M Tris-HCl, pH 7.5 and lysates clarified by centrifugation at 14,000 rpm for 10 minutes at 4 ° C. Equivalent amounts of lysate protein (5 μg) were used for Western blot analysis as described by Xiao et al. (1997) Mol. Endocrinol. 11: 1365. The inducible form of the 70 kDa heat shock protein, hsp70, was uniquely detected using the SPA-810 monoclonal antibody (StressGen). GA induction of hsp70 was evident within 3 hours of GA treatment, was maximal upon 9 hours of GA treatment, and persisted for at least 12 hours in the presence of GA.

hsp70 in HT22 cells = assay: Western blot of inducible hsp70 expression in HT22 cells; assay type: cell-based, mouse
Protocol: as §3

raf-1 in rat brain = assay: Western blot of raf-1 in rat hippocampus after intracranial ventricular injection; assay type: in vivo; conditions: 20 μg geldanamycin icv, 12 or 24 hours (FIGS. 5A, 5B)
Protocol: as §2

[6] = system: glutathione levels in HT22 cells; assay: Cellular glutathione (GSH) levels in HT22 cells (monochlorobimane fluorescence); assay type: cell-based, mouse; conditions: 0.1 μg/ml GA, 5 mM glutamate, 2-8 hours (FIG. 3)
Protocol: Cellular glutathione (GSH) levels were measured in HT22 cells as described previously by Kane (1993) Science 262:1274. Briefly, HT22 cells were seeded onto 96-well plates at 20,000 cells per well and grown overnight. […] Monochlorobimane was added to 40 μM and following an additional 30 minutes of incubation, fluorescence at 460 nm in response to excitation at 395 mn was measured using a Perkin Elmer fluorescence plate reader. Values represent the average of triplicate experiments±S.D.

[7] = system: heat shock proteins in myogenic H9c2 cells; conditions: cited from earlier work; for overexpression of heat shock proteins in myogenic H9c2 cells: pretreatment
hsp70 in fibroblasts = conditions: cited from earlier work
[8] = system: Male Sprague-Dawley rats (asphyxial cardiac arrest); assay type: in vivo, rat
Description: In rats, asphyxia produces circulatory arrest that can be reversed by mechanical ventilation and external chest compression (Katz et al. (1995) J. Cereb. Blood Flow Metab. 15:1032). […] Meaningful behavioral scores that predictable detect neurological deficits which closely mimic the types of deficits observed in patients that recover from cardiac arrest have been developed. Animal protocols were approved by the Institutional Animal Care and Use Committee of the University of Pittsburgh. Male Sprague-Dawley rats weighing 318±17 gm (Harlan, Indianapolis, Ind.) were anesthetized with 0.8% halothane in oxygen, endotracheally intubated using a 14 gauge angiocath, and mechanically ventilated using a Harvard rodent ventilator (0.9 cc/kg, 40 respirations/min). Blood pressure and arterial blood gases are monitored via a femoral arterial catheter (PE-50 tubing, IntraMedic), and drugs administered via a femoral venous catheter (PE-50). Tympanic temperature was maintained at 36.9±0.2° C. by manipulating an overhead 100 W lamp. After chemical paralysis with 2 mg/kg vecuronium and reducing the fraction of inspired oxygen to 0.21 (room air) mechanical ventilation was discontinued at end-expiration. Cardiac arrest (mean arterial pressure <10 mmHg) reliably occurred within 180 seconds. […]

[9] = system: hsp90-associated signaling molecules; conditions: other cultured cells; cited from earlier work

C=CCNC1=C2CC(C)CC(OC)C(O)C(C)C=C(C)C(OC(N)=O)C(OC)C=CC=C(C)C(=O)NC(=CC1=O)C2=O (stereo not drawn) [17-AAG, 17-allylaminogeldanamycin]
concentration at 24 h (in vivo): 100 ng/g

CC(=O)Oc1ccccc1C(=O)O [aspirin]
protection of cultured neurons from oxidative toxicity (cultured neurons): protect cultured neurons from this form of toxicity

COC1=C2C[C@@H](C)C[C@H](OC)[C@H](O)[C@@H](C)/C=C(\C)[C@H](OC(N)=O)[C@@H](OC)/C=C\C=C(/C)C(=O)NC(=CC1=O)C2=O [geldanamycin]
protection when GA is given following glutamate treatment (HT22 cells [1]; 0.1 μg/ml GA added after glutamate (FIG. 1)): retained its capacity to protect HT22 cells from oxidative stress | protection against glutamate cytotoxicity (MTT viability) (HT22 cells [1]; 0.1 μg/ml GA, 10 mM glutamate, 20 h): less effective at this higher dose of glutamate | protection against glutamate cytotoxicity (MTT viability) (HT22 cells [1]; 0.1 μg/ml GA, 2 and 5 mM glutamate, 20 h (FIG. 1)): effective protection | time after glutamate exposure at which protection by GA was still apparent (HT22 cells [1]; 0.1 μg/ml GA, 2 or 5 mM glutamate): 6 h | expression of hsp70 in rat brain (hsp70 in rat brain): increased expression of hsp70 | internucleosomal DNA cleavage, GA alone (HT22 cells [2]; 0.1 μg/ml GA alone): not subjected to this type of characteristic genomic DNA cleavage | block of glutamate-induced internucleosomal DNA cleavage (HT22 cells [2]; 0.1 μg/ml GA, 5 mM glutamate): able to block glutamate-induced internucleosomal DNA cleavage | protection against simulated ischemia [3]: conferred protection against simulated ischemia | induction of hsp70 expression in rat cardiomyocytes [4]: induce hsp70 expression | overexpression of heat shock proteins in cardiomyocytes [4]: overexpression of heat shock proteins | protection from glutamate-induced oxidative toxicity (phase contrast) (HT22 cells [5]; 0.1 μg/ml GA, 5 mM glutamate, GA added at same time or 1, 2 or 6 hours after glutamate): led to protection from glutamate-induced oxidative toxicity | HT22 cell growth rate, GA alone (HT22 cells [5]; GA alone): appeared to reduce HT22 cell growth rate | cell death, GA alone (HT22 cells [5]; GA alone, assessed after 24 hours): did not lead to cell death | steady state levels of hsp90 (hsp90 in HT22 cells): not affected | hsp70 induction by GA in the presence of glutamate (hsp70 in HT22 cells; 0.1 μg/ml GA + 5 mM glutamate): still able to induce hsp70 | time GA-induced hsp70 levels are maintained in the presence of glutamate (hsp70 in HT22 cells; 0.1 μg/ml GA + 5 mM glutamate): up to 12 hours | persistence of hsp70 induction in the presence of GA (hsp70 in HT22 cells; 0.1 μg/ml GA, HT22 cells): at least 12 hours | time at which GA induction of hsp70 was evident (hsp70 in HT22 cells; 0.1 μg/ml GA, HT22 cells): ≤ 3 h | time of maximal GA induction of hsp70 (hsp70 in HT22 cells; 0.1 μg/ml GA, HT22 cells): 9 h | induction of hsp70 protein levels at higher doses of GA (hsp70 in HT22 cells; doses above 0.1 μg/ml, HT22 cells): not significantly enhanced at higher doses | induction of hsp70 compared with heat shock (hsp70 in HT22 cells; vs 60 minute 42° C. heat shock, 0.1 μg/ml GA): as effective as a 60 minute 42 °C heat shock | expression of raf-1 proto-oncogene in rat brain (raf-1 in rat brain): decreased expression of the raf-1 proto-oncogene | recovery of glutathione levels [6]: did not lead to recovery of glutathione levels | induction of hsp70 expression in a myogenic cell line [7]: induce hsp70 expression | overexpression of heat shock proteins in myogenic H9c2 cells [7]: overexpression of heat shock proteins | induction of hsp70 expression in fibroblasts (hsp70 in fibroblasts): induce hsp70 expression | neurological deficit scores vs vehicle ([8]; GA 1.0 mg/kg iv after return of spontaneous circulation, n=5, scored at 24, 48, 72 hours, Kruskal-Wallace Chi-square=6.54, p<0.05 (FIG. 4)): lower in rats treated with GA (n=5) than in rats treated with vehicle | physiological variables during the resuscitation phase vs vehicle ([8]; GA 1.0 mg/kg iv, rats): did not differ between groups | degradation of hsp90-associated signaling molecules [9]: selective degradation of hsp90-associated signaling molecules

COC1C=CC=C(C)C(=O)NC2=CC(=O)C=C(C2=O)C(OC)C(C)CC(OC)C(OC)C(C)C=C(C)C1OC(N)=O (stereo not drawn) [herbimycin A]
protection from glutamate-induced oxidative toxicity (MTT viability) (HT22 cells [1]; 0.5 μg/ml herbimycin A (FIG. 2)): protected HT22 cells from the glutamate-induced oxidative toxicity | protection against simulated ischemia [3]: conferred protection against simulated ischemia | induction of hsp70 expression in rat cardiomyocytes [4]: induce hsp70 expression | overexpression of heat shock proteins in cardiomyocytes [4]: overexpression of heat shock proteins | induction of hsp70 expression in a myogenic cell line [7]: induce hsp70 expression | overexpression of heat shock proteins in myogenic H9c2 cells [7]: overexpression of heat shock proteins | induction of hsp70 expression in fibroblasts (hsp70 in fibroblasts): induce hsp70 expression

vitamin E
protection of cultured neurons from oxidative toxicity (cultured neurons): protect cultured neurons from this form of toxicity

Source: patent publication US6174875A, “Benzoquinoid ansamycins for the treatment of cardiac arrest and stroke” (priority 1999, dated 2001)
